Reference: patent US20240261417A1, “SOS1 DEGRADING AGENT AND PREPARATION METHOD THEREFOR AND APPLICATION THEREOF” (SHANGHAI LEADINGTAC PHARMACEUTICAL CO. LTD., priority 2021, published 2024)
pIC50: −log10 of the molar value.

How the values were obtained:
KRAS-G12C/SOS1 = molecular target: T1, KRAS-G12C/SOS1 (Homo sapiens, UniProt Q07889); assay: KRAS-G12C/SOS1 binding assay (HTRF); conditions: inhibition of KRAS-G12C/SOS1 binding
T1 construct: purchased Cisbio 63ADKOOOCB16PEG
T1 sequence (Q07889 1-1333): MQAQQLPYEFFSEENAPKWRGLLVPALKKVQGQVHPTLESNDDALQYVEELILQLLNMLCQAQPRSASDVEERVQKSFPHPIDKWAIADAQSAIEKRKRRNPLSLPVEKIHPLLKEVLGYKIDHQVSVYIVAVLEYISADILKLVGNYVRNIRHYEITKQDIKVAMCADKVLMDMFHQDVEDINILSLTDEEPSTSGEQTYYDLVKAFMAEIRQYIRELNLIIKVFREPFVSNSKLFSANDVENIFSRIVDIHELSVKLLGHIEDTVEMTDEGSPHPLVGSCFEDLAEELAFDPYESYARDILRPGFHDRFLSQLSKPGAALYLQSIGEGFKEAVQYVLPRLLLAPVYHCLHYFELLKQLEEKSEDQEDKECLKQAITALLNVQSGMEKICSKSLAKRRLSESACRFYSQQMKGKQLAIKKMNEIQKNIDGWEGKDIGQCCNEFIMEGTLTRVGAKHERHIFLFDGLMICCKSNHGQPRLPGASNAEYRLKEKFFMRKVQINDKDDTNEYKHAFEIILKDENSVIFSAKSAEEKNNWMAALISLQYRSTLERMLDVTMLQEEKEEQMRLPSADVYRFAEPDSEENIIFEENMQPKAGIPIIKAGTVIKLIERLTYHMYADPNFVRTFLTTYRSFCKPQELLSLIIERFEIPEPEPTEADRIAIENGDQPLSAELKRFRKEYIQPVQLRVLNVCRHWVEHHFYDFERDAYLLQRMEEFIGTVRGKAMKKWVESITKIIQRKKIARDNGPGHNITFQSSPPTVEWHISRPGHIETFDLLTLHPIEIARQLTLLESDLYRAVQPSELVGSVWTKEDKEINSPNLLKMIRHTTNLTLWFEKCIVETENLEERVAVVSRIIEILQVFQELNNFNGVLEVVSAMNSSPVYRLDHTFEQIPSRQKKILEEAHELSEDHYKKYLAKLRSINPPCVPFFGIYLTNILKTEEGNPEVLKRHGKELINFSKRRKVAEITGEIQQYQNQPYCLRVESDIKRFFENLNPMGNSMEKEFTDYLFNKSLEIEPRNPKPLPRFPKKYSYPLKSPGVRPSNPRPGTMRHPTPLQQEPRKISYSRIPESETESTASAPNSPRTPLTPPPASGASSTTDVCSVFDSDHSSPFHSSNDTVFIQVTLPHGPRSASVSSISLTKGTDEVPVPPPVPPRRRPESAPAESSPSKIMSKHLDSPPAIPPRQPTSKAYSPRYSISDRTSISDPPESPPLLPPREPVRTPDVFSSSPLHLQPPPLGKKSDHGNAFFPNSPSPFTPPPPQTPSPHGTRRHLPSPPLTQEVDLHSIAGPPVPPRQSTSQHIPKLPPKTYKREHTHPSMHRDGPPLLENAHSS
Experimental: The following method was used to determine the extent of inhibition of KRAS-G12C/SOS1 binding by the preferred compounds of the present invention under in vitro conditions. In this method, the competitive inhibition of KRAS-G12C/SOS1 binding by the preferred compounds was assayed by the homogeneous time-resolved fluorescence (HTRF) technology using the KRAS-G12C/SOS1 binding assay kit (Cisbio, 63ADKOOOCB16PEG).
The experimental procedures were as follows (refer to the kit instructions for details): the compounds of the present invention were each firstly dissolved in DMSO at a concentration of 20 mM, and then diluted in an equal gradient with a buffer in the kit, so that the final concentrations of the test compounds in the reaction system were in a range of 10000 nM-0.04 nM, and the final concentration of DMSO was 0.5%. 2 μL of the compounds were each incubated with 4 μL of 1×Tag1-SOS1, 4 μL of 1×Tag2-KRAS-G12C (containing 10 μM guanosine triphosphate, GTP) at 25° C. for 15 min. Then 5 μL of 1× Anti-Tag1-Tb3+ and 5 μL of 1× Anti-Tag2-XL665 were added to the reaction system, and the mixture was incubated on ice for 3 h. After the incubation, the fluorescence intensity of each well was measured at the excitation wavelength of 337 nm, the fluorescence intensity of each well was read at the emission wavelengths of 620 nm and 665 nm on a microplate reader EnVision (PerkinElmer, 2105) in an HTRF mode, and the Ratio value was calculated by the formula Ratio=(665 nm/620 nm)×[…]. The inhibition rates of the compounds at each concentration were calculated by comparing the fluorescence intensity ratio with that of the control group, and then nonlinear curve fitting was performed by GraphPad Prism 8 in the logarithmic concentration-inhibition rate to obtain the IC50 values of the compounds, as shown in Table 1.

SOS1 protein = molecular target: T2, SOS1 protein (Homo sapiens, UniProt Q07889); assay: SOS1 degradation assay (Western blot), NCI-H358 cells; assay type: cell-based; design: The degradation of SOS1 by the compounds was investigated on KRAS G12C mutant human non-small cell lung cancer cells NCI-H358; host or cells: NCI-H358 (human cancer cell lines); conditions: SOS1 degradation, NCI-H358 cells, 24 h, Western blot; for DC50: read-out: NCI-H358 (G12C) DC50; for Dmax: read-out: NCI-H358 (G12C) Dmax
T2 sequence (Q07889 1-1333): T1 sequence (Q07889 1-1333)
Method in brief: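 Cells at 5×10^5 per well were treated for 24 h at 37 °C with compound at 0.03–3000 nM final. SOS1 in lysates was measured by Western blot with chemiluminescent densitometry and normalised to the control group. DC50 and Dmax came from nonlinear fits against log concentration.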

| pIC50 (KRAS-G12C/SOS1) | DC50 (SOS1 protein) | Dmax (SOS1 protein) | SMILES |
| --- | --- | --- | --- |
| ≥ 7.82 | < 50 nM |  | COc1cc2nc(C)nc(N[C@H](C)c3cc(N)cc(C(F)(F)F)c3)c2cc1[C@H]1CC[C@H](C(=O)N2CCC(CCOCC3CCN(C(=O)c4ccc(F)c(N5CCC(=O)NC5=O)c4)CC3)CC2)CC1 [Example 44, 1-(5-(4-((2-(1-((1R,4R)-4-(4-(((R)-1-(3-amino-5-(trifluoromethyl)phenyl)ethyl)amino)-7-methoxy-2-methylquinazolin-6-yl)cyclohexane-1-carbonyl)piperidin-4-yl)ethoxy)methyl)piperidine-1-carbonyl)-2-fluorophenyl)dihydropyrimidine-2,4(1H,3H)-dione] |
| ≥ 7.82 | 100 to 500 nM | 50 to 80% | [2H]C1([2H])CC(OCC2CCN(C(=O)[C@H]3CC[C@H](c4cc5c(N[C@H](C)c6cc(N)cc(C(F)(F)F)c6)nc(C)nc5cc4OC)CC3)CC2)CC([2H])([2H])N1C(=O)c1ccc(Cl)c(N2CCC(=O)NC2=O)c1 [Example 45, 1-(5-(4-((1-((1R,4R)-4-(4-(((R)-1-(3-amino-5-(trifluoromethyl)phenyl)ethyl)amino)-7-methoxy-2-methylquinazolin-6-yl)cyclohexane-1-carbonyl)piperidin-4-yl)methoxy)piperidine-1-carbonyl-2,2,6,6-d4)-2-chlorophenyl)dihydropyrimidine-2,4(1H,3H)-dione] |
| ≥ 7.82 | < 50 nM | 50 to 80% | COc1cc2nc(C)nc(N[C@H](C)c3cc(-c4c(Cl)cccc4CN(C)C)cs3)c2cc1C1=CCC(C(=O)N2CCC(CCOCC3CCN(C(=O)c4ccc(Cl)c(C5CCC(=O)NC5=O)c4)CC3)CC2)CC1 (stereo partly drawn) [Example 46, 3-(2-chloro-5-(4-((2-(1-(4-(4-(((R)-1-(4-(2-chloro-6-((dimethylamino)methyl)phenyl)thien-2-yl)ethyl)amino)-7-methoxy-2-methylquinazolin-6-yl)cyclohex-3-ene-1-carbonyl)piperidin-4-yl)ethoxy)methyl)piperidine-1-carbonyl)phenyl)piperidine-2,6-dione] |
| ≥ 7.82 | 1000 to 10000 nM | < 30% | CNCc1ccccc1-c1csc([C@@H](C)Nc2nc(C)nc3cc(OC)c([C@H]4CC[C@H](C(=O)N(C)CCCC5CCN(C(=O)c6ccc(Cl)c(N7CCC(=O)NC7=O)c6)CC5)CC4)cc23)c1 [Example 47, (1R,4R)—N-(3-(1-(4-chloro-3-(2,4-dioxotetrahydropyrimidin-1(2H)-yl)benzoyl)piperidin-4-yl)propyl)-4-(7-methoxy-2-methyl-4-(((R)-1-(4-(2-((methylamino)methyl)phenyl)thien-2-yl)ethyl)amino)quinazolin-6-yl)-N-methylcyclohexane-1-carboxamide] |
| ≥ 7.82 | 100 to 500 nM | 50 to 80% | CNCc1ccccc1-c1csc([C@@H](C)Nc2nc(C)nc3cc(OC)c([C@H]4CC[C@H](C(=O)N(C)CCCC5CCC6(CC5)CCN(C(=O)c5ccc(Cl)c(N7CCC(=O)NC7=O)c5)CC6)CC4)cc23)c1 [Example 49, (1R,4R)—N-(3-(3-(4-chloro-3-(2,4-dioxotetrahydropyrimidin-1(2H)-yl)benzoyl)-3-azaspiro[5.5]undecan-9-yl)propyl)-4-(7-methoxy-2-methyl-4-(((R)-1-(4-(2-((methylamino)methyl)phenyl)thien-2-yl)ethyl)amino)quinazolin-6-yl)-N-methylcyclohexane-1-carboxamide] |
| ≥ 7.82 | < 50 nM | 80 to 100% | CNCc1ccccc1-c1csc([C@@H](C)Nc2nc(C)nc3cc(OC)c([C@H]4CC[C@H](C(=O)N5CCN(CCC6CCC7(CC6)CCN(C(=O)c6ccc(Cl)c(N8CCC(=O)NC8=O)c6)CC7)CC5)CC4)cc23)c1 [Example 50] |
| ≥ 7.82 | < 50 nM | 80 to 100% | COc1cc2nc(C)nc(N[C@H](C)c3cc(N)cc(C(F)(F)F)c3)c2cc1C1=CCC(C(=O)N2CCN(CC3CCC4(CC3)CCN(C(=O)c3ccc(Cl)c(N5CCC(=O)NC5=O)c3)CC4)CC2)CC1 (stereo partly drawn) [Example 51, 1-(5-(9-((4-(4-(4-(((R)-1-(3-amino-5-(trifluoromethyl)phenyl)ethyl)amino)-7-methoxy-2-methylquinazolin-6-yl)cyclohex-3-ene-1-carbonyl)piperazin-1-yl)methyl)-3-azaspiro[5.5]undecane-3-carbonyl)-2-chlorophenyl)dihydropyrimidine-2,4(1H,3H)-dione] |
| ≥ 7.82 | 100 to 500 nM | 50 to 80% | COc1cc2nc(C)nc(N[C@H](C)c3cc(-c4c(Cl)cccc4CN(C)C)cs3)c2cc1[C@H]1CC[C@H](C(=O)N2CCN(CC3CCC4(CC3)CCN(C(=O)c3ccc(C5CCC(=O)NC5=O)cc3)CC4)CC2)CC1 (stereo partly drawn) [Example 52, 3-(4-(9-((4-((1R,4R)-4-(4-(((R)-1-(4-(2-chloro-6-((dimethylamino)methyl)phenyl)thien-2-yl)ethyl)amino)-7-methoxy-2-methylquinazolin-6-yl)cyclohexane-1-carbonyl)piperazin-1-yl)methyl)-3-azaspiro[5.5]undecane-3-carbonyl)phenyl)piperidine-2,6-dione] |
| ≥ 7.82 | < 50 nM | 50 to 80% | COc1cc2nc(C)nc(N[C@H](C)c3cc(N)cc(C(F)(F)F)c3)c2cc1C1=CCC(C(=O)N2CCN(CCOCC3CCN(C(=O)c4ccc(Cl)c(N5CCC(=O)NC5=O)c4)CC3)CC2)CC1 (stereo partly drawn) [Example 53, 1-(5-(4-((2-(4-(4-(4-(((R)-1-(3-amino-5-(trifluoromethyl)phenyl)ethyl)amino)-7-methoxy-2-methylquinazolin-6-yl)cyclohex-3-ene-1-carbonyl)piperazin-1-yl)ethoxy)methyl)piperidine-1-carbonyl)-2-chlorophenyl)dihydropyrimidine-2,4(1H,3H)-dione] |
| ≥ 7.82 | < 50 nM | 80 to 100% | COc1cc2nc(C)nc(N[C@H](C)c3cc(-c4c(Cl)cccc4CN(C)C)cs3)c2cc1[C@H]1CC[C@H](C(=O)N2CCC(CCCOC3CCN(C(=O)c4ccc(Cl)c(N5CCC(=O)NC5=O)c4)CC3)CC2)CC1 [Example 54, 1-(2-chloro-5-(4-(3-(1-((1R,4R)-4-(4-(((R)-1-(4-(2-chloro-6-((dimethylamino)methyl)phenyl)thien-2-yl)ethyl)amino)-7-methoxy-2-methylquinazolin-6-yl)cyclohexane-1-carbonyl)piperidin-4-yl)propoxy)piperidine-1-carbonyl)phenyl)dihydropyrimidine-2,4(1H,3H)-dione] |
